Reference: ChEMBL document CHEMBL6153137, “Design, Synthesis, and Biological Evaluation of Novel Orally Available Covalent CDK12/13 Dual Inhibitors for the Treatment of Tumors” (J Med Chem, 2025)
Calls of active or inactive are those of the source. The rule behind the calls is not given here.

Experiments:
[1] = molecular target: T1, CDK12/Cyclin K (Homo sapiens) (UniProt O75909+Q9NYV4); experiment: Inhibition of N-terminal GST-tagged human recombinant CDK12/N-terminal FLAG and C-terminal 6X His-tagged Cyclin K expressed in HEP Sf9 cells using ATP as substrate at 2 uM measured after 60 mins by ADP-Glo reagent based luminescence assay
MV4-11 = experiment: Antitumor activity against human MV4-11 cells xenografted in Balb/c nude mouse assessed as inhibition of tumor growth at 30 mg/kg, po administered once daily via gavage and measured on day 21; type: functional; settings: MV4-11, 504 h, time 21 day, read-out: TGI
[2] = Ratio of drug level in tumor to plasma in Balb/c mouse xenografted with human MV4-11 cells at 30 mg/kg, po administered via gavage and measured after 2 hrs; type: ADME, organism-based
[3] = Toxicity against male Sprague-Dawley rat assessed as effect on blood urea nitrogen level at 10 to 40 mg/kg, po administered once daily via gavage for 28 days and measured on day 29; type: organism-based; settings: in vivo, 696 h, dose 10-40 mg/kg, time 29 day
[4] = Ratio of drug level in tumor to plasma in Balb/c mouse xenografted with human SUM149PT cells at 30 mg/kg, po administered via gavage and measured after 2 hrs; type: ADME, organism-based
[5] = molecular target: T1, CDK12/Cyclin K (Homo sapiens); experiment: Irreversible covalent binding affinity to CDK12/CyclinK (unknown origin) at Cys1039 residue assessed as 1:1 complex formation at 5 uM measured after 3 hrs by peptide mapping based mass spectrometric analysis; type: protein-complex assay
[6] = molecular target: CDK18/Cyclin Y (Homo sapiens) (UniProt Q07002+Q8ND76); experiment: Inhibition of human recombinant N-terminal GST-tagged CDK18/N-terminal GST-tagged Cyclin Y expressed in HEP Sf9 cells using ATP as substrate at 2 uM measured after 60 mins by ADP-Glo reagent based luminescence assay
[7] = AUC in Balb/c mouse xenografted with human SUM149PT cells at 60 mg/kg, po administered once daily via gavage; type: ADME, organism-based; settings: in vivo
[8] = Toxicity against male Sprague-Dawley rat assessed as effect on hemoglobin level at 10 to 40 mg/kg, po administered once daily via gavage for 28 days and measured on day 29; type: organism-based; settings: in vivo, 696 h, dose 10-40 mg/kg, time 29 day
[9] = Half-life in Balb/c mouse xenografted with human MV4-11 cells at 30 mg/kg, po administered once daily via gavage; type: ADME, organism-based; settings: in vivo
[10] = molecular target: CDK6/cyclin D1 (Homo sapiens) (UniProt P24385+Q00534); experiment: Inhibition of human recombinant N-terminal GST-tagged CDK6/N-terminal GST-tagged and C-terminal 6X His-tagged Cyclin D1 expressed in HEP Sf9 cells using ATP as substrate at 2 uM measured after 60 mins by ADP-Glo reagent based luminescence analysis
[11] = Half life in male Sprague-Dawley rat at 40 mg/kg, po administered once daily via gavage for 28 days; type: ADME, organism-based; settings: in vivo, time 28 day
NAMALVA = experiment: Antiproliferative activity against human NAMALWA cells assessed as reduction in cell viability incubated for 7 days by CellTiter-Glo reagent based luminescence analysis; type: functional; settings: 168 h
[12] = Toxicity against female Sprague-Dawley rat assessed as effect on hematocrit level at 7.5 to 30 mg/kg, po administered once daily via gavage for 28 days and measured on day 29; type: organism-based; settings: in vivo, 696 h, dose 7.5-30 mg/kg, time 29 day
[13] = Toxicity against female Sprague-Dawley rat assessed as effect on AST level in blood at 7.5 to 30 mg/kg, po administered once daily via gavage for 28 days and measured on day 29; type: organism-based; settings: in vivo, 696 h, dose 7.5-30 mg/kg, time 29 day
Mus musculus = experiment: In vivo inhibition of CDK12/13 in Balb/c mouse xenografted with human SUM149PT cells assessed as reduction in BRCA1 gene expression at 15 to 30 mg/kg, po administered once daily via gavage and measured at 4 hrs post-last drug dosage by qPCR analysis; type: functional, organism-based; settings: dose 15-30 mg/kg
[14] = Permeability of the compound in human Caco-2 cells at 2 uM incubated for 2 hrs by LC-MS/MS analysis; type: ADME, cell-based; settings: read-out: permeability
[15] = Toxicity against Sprague-Dawley rat assessed as abnormalities at 5 to 15 mg/kg, po measured for 24 hrs; type: organism-based; settings: in vivo, dose 5-15 mg/kg
[16] = Volume of distribution at steady state in CD-1 mouse at 1 mg/kg, iv measured for 24 hrs by LC-MS/MS analysis; type: ADME, organism-based; settings: in vivo, read-out: Vdss
[17] = Cmax in Sprague-Dawley rat at 15 mg/kg, po measured for 24 hrs by LC-MS/MS analysis; type: ADME, organism-based; settings: in vivo
[18] = Toxicity against male Sprague-Dawley rat assessed as increase in neutrophils content at 10 to 40 mg/kg, po administered once daily via gavage for 28 days and measured on day 29; type: organism-based; settings: in vivo, 696 h, dose 10-40 mg/kg, time 29 day
[19] = Toxicity against male Sprague-Dawley rat assessed as effect on chlorine level in blood at 10 to 40 mg/kg, po administered once daily via gavage for 28 days and measured on day 29; type: organism-based; settings: in vivo, 696 h, dose 10-40 mg/kg, time 29 day
[20] = Toxicity against male Sprague-Dawley rat assessed as effect on glucose level in blood at 10 to 40 mg/kg, po administered once daily via gavage for 28 days and measured on day 29; type: organism-based; settings: in vivo, 696 h, dose 10-40 mg/kg, time 29 day
[21] = Cmax in Sprague-Dawley rat at 150 mg/kg, po measured for 24 hrs by LC-MS/MS analysis; type: ADME, organism-based; settings: in vivo
[22] = Cmax in female Sprague-Dawley rat at 7.5 mg/kg, po administered via gavage and measured on day 1; type: ADME, organism-based; settings: in vivo, time 1 day
[23] = Toxicity against female Sprague-Dawley rat assessed as effect on monocytes level at 7.5 to 30 mg/kg, po administered once daily via gavage for 28 days and measured on day 29; type: organism-based; settings: in vivo, 696 h, dose 7.5-30 mg/kg, time 29 day
[24] = molecular target: Mitogen-activated protein kinase 10 (Homo sapiens) (UniProt P53779); experiment: Inhibition of JNK3 (unknown origin) at 5 uM by DiscoverX KinomeScan ScanMAX analysis
[25] = Half life in Sprague-Dawley rat at 5 mg/kg, po measured for 24 hrs by LC-MS/MS analysis; type: ADME, organism-based; settings: in vivo
[26] = Half life in male Sprague-Dawley rat at 10 mg/kg, po administered via gavage and measured on day 1; type: ADME, organism-based; settings: in vivo, time 1 day
[27] = Toxicity against male Sprague-Dawley rat assessed as effect on red blood cells level at 10 to 40 mg/kg, po administered once daily via gavage for 28 days and measured on day 29; type: organism-based; settings: in vivo, 696 h, dose 10-40 mg/kg, time 29 day
KARPAS-299 = experiment: Antiproliferative activity against human KARPAS-299 cells assessed as reduction in cell viability incubated for 7 days by CellTiter-Glo reagent based luminescence analysis; type: functional; settings: KARPAS-299, 168 h
[28] = Toxicity against Sprague-Dawley rat assessed as abnormalities at 1 mg/kg, iv measured for 24 hrs; type: organism-based; settings: in vivo
[29] = Toxicity against male Sprague-Dawley rat assessed as effect on sodium level in blood at 10 to 40 mg/kg, po administered once daily via gavage for 28 days and measured on day 29; type: organism-based; settings: in vivo, 696 h, dose 10-40 mg/kg, time 29 day
[30] = Half life in male Sprague-Dawley rat at 40 mg/kg, po administered via gavage and measured on day 1; type: ADME, organism-based; settings: in vivo, time 1 day
[31] = Half life in female Sprague-Dawley rat at 15 mg/kg, po administered once daily via gavage for 28 days; type: ADME, organism-based; settings: in vivo, time 28 day

T1 sequence (O75909 whole entry, looked up): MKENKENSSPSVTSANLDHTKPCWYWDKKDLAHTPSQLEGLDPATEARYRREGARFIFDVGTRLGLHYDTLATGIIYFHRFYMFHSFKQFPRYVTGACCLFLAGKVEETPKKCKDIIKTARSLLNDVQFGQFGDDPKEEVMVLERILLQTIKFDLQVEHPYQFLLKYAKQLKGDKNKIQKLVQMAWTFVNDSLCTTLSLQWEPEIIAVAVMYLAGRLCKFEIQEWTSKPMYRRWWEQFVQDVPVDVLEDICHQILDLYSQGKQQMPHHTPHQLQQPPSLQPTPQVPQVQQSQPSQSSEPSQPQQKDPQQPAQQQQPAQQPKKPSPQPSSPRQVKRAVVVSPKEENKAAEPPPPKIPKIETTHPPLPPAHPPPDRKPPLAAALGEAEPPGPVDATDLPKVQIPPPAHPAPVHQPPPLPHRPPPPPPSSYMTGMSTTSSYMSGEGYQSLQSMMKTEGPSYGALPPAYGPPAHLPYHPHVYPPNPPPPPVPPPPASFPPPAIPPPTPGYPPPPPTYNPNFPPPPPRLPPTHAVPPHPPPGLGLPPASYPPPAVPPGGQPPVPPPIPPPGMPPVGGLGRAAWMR
T1 sequence (Q9NYV4 whole entry, looked up): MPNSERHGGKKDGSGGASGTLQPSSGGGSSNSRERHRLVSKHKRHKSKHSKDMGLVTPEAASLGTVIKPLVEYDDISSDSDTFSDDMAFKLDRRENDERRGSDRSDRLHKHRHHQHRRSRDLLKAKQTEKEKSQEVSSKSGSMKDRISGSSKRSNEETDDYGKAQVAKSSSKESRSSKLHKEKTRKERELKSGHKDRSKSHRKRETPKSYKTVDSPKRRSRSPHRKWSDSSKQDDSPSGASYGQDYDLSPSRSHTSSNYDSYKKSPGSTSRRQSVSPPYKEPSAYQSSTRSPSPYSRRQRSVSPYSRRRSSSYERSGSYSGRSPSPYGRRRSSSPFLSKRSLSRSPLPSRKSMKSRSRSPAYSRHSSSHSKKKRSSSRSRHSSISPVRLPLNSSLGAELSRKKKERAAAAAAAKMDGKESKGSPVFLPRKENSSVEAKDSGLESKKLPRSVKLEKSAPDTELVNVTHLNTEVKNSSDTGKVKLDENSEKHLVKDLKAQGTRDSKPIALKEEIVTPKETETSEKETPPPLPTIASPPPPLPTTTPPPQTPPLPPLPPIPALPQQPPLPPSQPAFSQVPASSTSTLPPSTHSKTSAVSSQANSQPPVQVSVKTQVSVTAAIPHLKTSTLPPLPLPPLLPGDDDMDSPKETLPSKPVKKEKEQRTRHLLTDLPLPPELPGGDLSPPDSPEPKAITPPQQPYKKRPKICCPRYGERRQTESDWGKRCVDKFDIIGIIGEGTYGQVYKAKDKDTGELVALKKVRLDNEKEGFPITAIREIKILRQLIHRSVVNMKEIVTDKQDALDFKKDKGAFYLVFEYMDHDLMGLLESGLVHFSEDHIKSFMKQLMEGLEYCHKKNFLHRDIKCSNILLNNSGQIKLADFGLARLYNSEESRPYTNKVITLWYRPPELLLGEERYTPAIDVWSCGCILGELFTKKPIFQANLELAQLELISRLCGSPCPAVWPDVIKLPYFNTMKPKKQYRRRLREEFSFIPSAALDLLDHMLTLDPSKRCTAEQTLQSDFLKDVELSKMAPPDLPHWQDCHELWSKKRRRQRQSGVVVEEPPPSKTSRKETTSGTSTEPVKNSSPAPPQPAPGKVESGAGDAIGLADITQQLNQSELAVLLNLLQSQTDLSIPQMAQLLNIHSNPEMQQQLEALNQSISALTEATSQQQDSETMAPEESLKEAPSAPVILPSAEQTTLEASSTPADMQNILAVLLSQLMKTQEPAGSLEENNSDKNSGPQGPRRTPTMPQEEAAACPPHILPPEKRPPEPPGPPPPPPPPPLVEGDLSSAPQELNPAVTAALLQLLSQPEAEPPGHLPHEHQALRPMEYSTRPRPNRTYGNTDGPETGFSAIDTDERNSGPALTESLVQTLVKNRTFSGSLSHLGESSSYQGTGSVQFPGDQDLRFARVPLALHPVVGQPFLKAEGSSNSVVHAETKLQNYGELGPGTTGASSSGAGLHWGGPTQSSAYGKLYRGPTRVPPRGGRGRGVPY
Mitogen-activated protein kinase 10 (Homo sapiens), sequence (P53779 whole entry): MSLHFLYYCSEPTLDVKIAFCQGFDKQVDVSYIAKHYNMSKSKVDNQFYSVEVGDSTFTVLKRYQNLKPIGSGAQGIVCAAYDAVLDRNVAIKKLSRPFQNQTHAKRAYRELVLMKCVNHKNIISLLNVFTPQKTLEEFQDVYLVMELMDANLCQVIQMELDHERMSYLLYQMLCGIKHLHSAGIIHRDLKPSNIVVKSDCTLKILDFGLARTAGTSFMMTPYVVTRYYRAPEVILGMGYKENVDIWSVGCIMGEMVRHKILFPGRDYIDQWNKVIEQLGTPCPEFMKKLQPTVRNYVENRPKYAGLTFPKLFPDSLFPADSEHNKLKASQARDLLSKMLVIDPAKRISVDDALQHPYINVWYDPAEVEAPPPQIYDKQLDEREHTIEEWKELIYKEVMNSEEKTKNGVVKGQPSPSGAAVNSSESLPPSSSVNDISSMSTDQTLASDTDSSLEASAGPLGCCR

inhibition [1]: 97% | Kp at 2 h [2]: 0.46 | Kp at 2 h [4]: 0.38 | Activity [5]: Active | inhibition [6]: 68% | AUC [7]: 4620 ng·h/mL | half-life [9]: 1.17 h | inhibition [10]: 56% | half-life [11]: 6.9 h | Papp at 2 h, 2 µM [14]: 4.6 ×10⁻⁶ cm/s | Vd [16]: 0.87 L/kg | Cmax [17]: 797 ng/mL | Cmax [21]: 3760 ng/mL | Cmax [22]: 870 ng/mL | inhibition [24]: Active | half-life [25]: 0.8 h | half-life [26]: 3.2 h | IC50 (KARPAS-299): 0.131 µM | half-life [30]: 6.2 h | half-life [31]: 2.3 h
SMILES: C=CC(=O)N1CCc2c(ncnc2N2CC[C@@H](Nc3ncc(Cl)c(OC)n3)C2)C1
inhibition in vivo at 30 mg/kg (MV4-11): 95% | Activity [3]: Non-toxic | Activity [8]: Non-toxic | IC50 (NAMALVA): 0.098 µM | Activity [12]: Non-toxic | Activity [13]: Non-toxic | inhibition (Mus musculus): Active | Activity [15]: Non-toxic | Activity [18]: Toxic | Activity [19]: Non-toxic | Activity [20]: Non-toxic | Activity [23]: Non-toxic | Activity [27]: Non-toxic | Activity [28]: Non-toxic | Activity [29]: Non-toxic
